Test results reported in the NIST ThermoML archive (doi:10.1016/j.fluid.2013.06.021).
Numbers after ± are expanded uncertainties.

Assay: xn = mol fraction of the nth substance listed
Details: 101 kPa, Liquid; for speed of sound: Sing-around technique in a fixed-path interferometer; for mass density: Vibrating tube method; for viscosity: Capillary tube (Ostwald / Ubbelohde) method

CCCCOCCO [2-butoxyethan-1-ol] + CCC(C)O
Details | mass density [kg/m3] | speed of sound [m/s] | viscosity [mPa·s]
293.15 K, x1 = 0.0517 | 813.24 ± 0.14 | 1236.5 ± 0.8 | –
293.15 K, x1 = 0.1011 | 819.25 ± 0.13 | 1242 ± 0.8 | –
293.15 K, x1 = 0.152 | 825.25 ± 0.13 | 1247.7 ± 0.79 | –
293.15 K, x1 = 0.2027 | 831.03 ± 0.13 | 1253.1 ± 0.78 | –
293.15 K, x1 = 0.2541 | 836.67 ± 0.12 | 1258.4 ± 0.78 | –
293.15 K, x1 = 0.3092 | 842.49 ± 0.12 | 1264 ± 0.77 | –
293.15 K, x1 = 0.4012 | 851.78 ± 0.12 | 1272.9 ± 0.76 | –
293.15 K, x1 = 0.5011 | 861.21 ± 0.12 | 1282.2 ± 0.75 | –
293.15 K, x1 = 0.6065 | 870.53 ± 0.1 | 1291.4 ± 0.74 | –
293.15 K, x1 = 0.7054 | 878.73 ± 0.097 | 1299.8 ± 0.73 | –
293.15 K, x1 = 0.806 | 886.59 ± 0.09 | 1307.9 ± 0.72 | –
293.15 K, x1 = 0.8558 | 890.31 ± 0.087 | 1311.8 ± 0.72 | –
293.15 K, x1 = 0.8999 | 893.54 ± 0.084 | 1315.3 ± 0.71 | –
293.15 K, x1 = 0.9516 | 897.19 ± 0.082 | 1319.3 ± 0.71 | –
298.15 K, x1 = 0.0517 | 809.099 ± 0.14 | 1218.9 ± 0.8 | 2.932 ± 0.12
298.15 K, x1 = 0.1011 | 815.491 ± 0.13 | 1224.3 ± 0.79 | 2.809 ± 0.12
298.15 K, x1 = 0.152 | 821.091 ± 0.13 | 1229.9 ± 0.78 | 2.713 ± 0.12
298.15 K, x1 = 0.2027 | 826.863 ± 0.13 | 1235.3 ± 0.78 | 2.66 ± 0.12
298.15 K, x1 = 0.2541 | 832.498 ± 0.13 | 1240.7 ± 0.77 | 2.607 ± 0.12
298.15 K, x1 = 0.3092 | 838.314 ± 0.12 | 1246.4 ± 0.76 | 2.586 ± 0.12
298.15 K, x1 = 0.4012 | 847.585 ± 0.12 | 1255.4 ± 0.75 | 2.563 ± 0.12
298.15 K, x1 = 0.5011 | 857.012 ± 0.12 | 1264.8 ± 0.74 | 2.583 ± 0.12
298.15 K, x1 = 0.6065 | 866.34 ± 0.11 | 1274.2 ± 0.73 | –
298.15 K, x1 = 0.6066 | – | – | 2.598 ± 0.12
298.15 K, x1 = 0.7054 | 874.537 ± 0.098 | 1282.5 ± 0.72 | 2.653 ± 0.12
298.15 K, x1 = 0.806 | 882.398 ± 0.091 | 1290.7 ± 0.71 | 2.711 ± 0.12
298.15 K, x1 = 0.8558 | 886.109 ± 0.088 | 1294.6 ± 0.71 | 2.747 ± 0.12
298.15 K, x1 = 0.8999 | 889.334 ± 0.086 | 1298.1 ± 0.71 | 2.796 ± 0.12
298.15 K, x1 = 0.9516 | 892.99 ± 0.08 | 1302.2 ± 0.7 | 2.824 ± 0.12
303.15 K, x1 = 0.0517 | 804.88 ± 0.14 | 1202 ± 0.79 | 2.441 ± 0.12
303.15 K, x1 = 0.1011 | 810.88 ± 0.14 | 1207 ± 0.78 | 2.357 ± 0.12
303.15 K, x1 = 0.152 | 816.86 ± 0.13 | 1212.3 ± 0.78 | 2.319 ± 0.12
303.15 K, x1 = 0.2027 | 822.62 ± 0.13 | 1217.7 ± 0.77 | 2.283 ± 0.12
303.15 K, x1 = 0.2541 | 828.26 ± 0.13 | 1223 ± 0.76 | 2.249 ± 0.12
303.15 K, x1 = 0.3092 | 834.08 ± 0.12 | 1228.6 ± 0.76 | 2.22 ± 0.12
303.15 K, x1 = 0.4012 | 843.34 ± 0.12 | 1237.7 ± 0.75 | 2.224 ± 0.12
303.15 K, x1 = 0.5011 | 852.78 ± 0.12 | 1247.4 ± 0.74 | 2.283 ± 0.12
303.15 K, x1 = 0.6065 | 862.11 ± 0.11 | 1257.1 ± 0.73 | –
303.15 K, x1 = 0.6066 | – | – | 2.342 ± 0.12
303.15 K, x1 = 0.7054 | 870.3 ± 0.1 | 1265.5 ± 0.72 | 2.419 ± 0.12
303.15 K, x1 = 0.806 | 878.16 ± 0.093 | 1273.8 ± 0.71 | 2.488 ± 0.12
303.15 K, x1 = 0.8558 | 881.88 ± 0.09 | 1277.7 ± 0.7 | 2.53 ± 0.12
303.15 K, x1 = 0.8999 | 885.1 ± 0.087 | 1281.2 ± 0.7 | 2.562 ± 0.12
303.15 K, x1 = 0.9516 | 888.76 ± 0.085 | 1285.1 ± 0.7 | 2.606 ± 0.12
308.15 K, x1 = 0.0517 | 800.58 ± 0.14 | 1183 ± 0.79 | 2.081 ± 0.12
308.15 K, x1 = 0.1011 | 806.58 ± 0.14 | 1188.7 ± 0.78 | 2.031 ± 0.12
308.15 K, x1 = 0.152 | 812.55 ± 0.13 | 1194.5 ± 0.77 | 1.994 ± 0.12
308.15 K, x1 = 0.2027 | 818.33 ± 0.13 | 1200 ± 0.77 | 1.97 ± 0.12
308.15 K, x1 = 0.2541 | 823.96 ± 0.13 | 1205.6 ± 0.76 | 1.944 ± 0.12
308.15 K, x1 = 0.3092 | 829.79 ± 0.13 | 1211.4 ± 0.75 | 1.935 ± 0.12
308.15 K, x1 = 0.4012 | 839.07 ± 0.12 | 1220.6 ± 0.74 | 1.935 ± 0.12
308.15 K, x1 = 0.5011 | 848.49 ± 0.12 | 1230.3 ± 0.73 | 1.964 ± 0.12
308.15 K, x1 = 0.6065 | 857.81 ± 0.11 | 1240 ± 0.72 | –
308.15 K, x1 = 0.6066 | – | – | 1.998 ± 0.12
308.15 K, x1 = 0.7054 | 866.02 ± 0.1 | 1248.6 ± 0.71 | 2.064 ± 0.12
308.15 K, x1 = 0.806 | 873.9 ± 0.094 | 1256.7 ± 0.7 | 2.112 ± 0.12
308.15 K, x1 = 0.8558 | 877.63 ± 0.091 | 1260.8 ± 0.7 | 2.144 ± 0.12
308.15 K, x1 = 0.8999 | 880.86 ± 0.089 | 1264.2 ± 0.69 | 2.172 ± 0.12
308.15 K, x1 = 0.9516 | 884.53 ± 0.086 | 1268.2 ± 0.69 | 2.196 ± 0.12
313.15 K, x1 = 0.0517 | 796.19 ± 0.14 | 1164.9 ± 0.78 | –
313.15 K, x1 = 0.1011 | 802.19 ± 0.14 | 1170.6 ± 0.77 | –
313.15 K, x1 = 0.152 | 808.15 ± 0.14 | 1176.6 ± 0.77 | –
313.15 K, x1 = 0.2027 | 813.93 ± 0.13 | 1182.3 ± 0.76 | –
313.15 K, x1 = 0.2541 | 819.59 ± 0.13 | 1188 ± 0.75 | –
313.15 K, x1 = 0.3092 | 825.43 ± 0.13 | 1193.9 ± 0.75 | –
313.15 K, x1 = 0.4012 | 834.71 ± 0.12 | 1203.5 ± 0.74 | –
313.15 K, x1 = 0.5011 | 844.14 ± 0.12 | 1213.3 ± 0.7 | –
313.15 K, x1 = 0.6065 | 853.46 ± 0.11 | 1223.1 ± 0.71 | –
313.15 K, x1 = 0.7054 | 861.68 ± 0.1 | 1231.8 ± 0.7 | –
313.15 K, x1 = 0.806 | 869.59 ± 0.096 | 1240.2 ± 0.7 | –
313.15 K, x1 = 0.8558 | 873.33 ± 0.093 | 1244.1 ± 0.69 | –
313.15 K, x1 = 0.8999 | 876.56 ± 0.09 | 1247.6 ± 0.69 | –
313.15 K, x1 = 0.9516 | 880.24 ± 0.088 | 1251.6 ± 0.68 | –
